Data reported in patent publication EP2601963B1, “N-ISOVALEROYL-L-GLUTAMYL-L-TRYPTOPHAN AS AN AGENT INHIBITING THE FORMATION OF ULCERS IN THE STOMACH AND THE DUODENUM” (Obshestvo S Ogranichennoj Otvetstvennostju "CytoNIR", priority 2010, dated 2015).

Test system: stress-induced gastric ulcers
Test: Water-immersion stress model: gastric lesions, preventive treatment
Assay type: in vivo, male Wistar rats
Parameters: key to GA1 (gastroprotective activity calculated for number of lesions): GA1 = PI of control group / PI of treated group; key to GA2 (gastroprotective activity calculated for lesion size): GA2 = UI of control group / UI of treated group; key to Pauls Index: PI = mean lesions per group × % animals with lesions / 100; key to Ulcer Index: UI = mean lesion area in group × % animals with lesions / 100
Procedure: All studies were conducted on male Wistar rats weighing 220 ± 20 g, obtained from Rappolovo nursery (Leningrad oblast). For 14 days prior to the experiment, the animals were held in isolation. The animals were handled in accordance with the European Convention for the Protection of Vertebrate Animals used for Experimental and Other Scientific Purposes (Strasburg, 1986). The animals were held in standard plastic cages and fed a standard diet of PK120-3 (granulated feed in accordance with order # 1179 M3 USSR 10/10/1983) with a free access to water.
In each series, the animals were divided into experimental and control groups with 10 rats per group. The animals in the experimental groups were orally administered the claimed preparation or a comparator drug, and the control group animals received distilled water in the same amount.
The experimental animals were divided into 5 groups, 10 animals each. The animals received the following therapy: • control group received distilled water per os; • experimental group 1 received 0.1 mkg/kg N-isovaleroyl-L-glutamyl-L-tryptophan; • experimental group 2 received 10 mkg/kg N-isovaleroyl-L-glutamyl-L-tryptophan; • experimental group 3 received 200 mkg/kg of the comparator drug Sucralfate; • experimental group 4 received 50 mkg/kg of the comparator drug Misoprostol;
The experiment was conducted as follows: • The proposed drug, comparator drugs, and distilled water were administered once daily over 7 days, and on the day of the ulcerogenic stress induction one hour prior to the stress.
The rats deprived of food for 18 hrs. were placed into special cases and immersed in water vertically to the level of their xyphoids. The animals were held in this position for 5 hrs. at 23° C water temperature. After that, the animals were removed from the experiment.
Animals' body weight changes were monitored throughout the experiment. The experimental animals were then sacrificed by decapitation, and their blood was collected in test tubes. The stomachs were extracted, dissected along the major curve, rinsed with cold saline solution, and the mucosa was carefully examined through a magnifying glass under bright lights. The mucosa was inspected for color, the presence of hyperemia and its intensity. The number of lesions, which were differentiated into small round (less than 1 mm), linear, and large lesions (more than 1mm) and the size of the area they covered were calculated. The average number of lesions per one animal in a group and the percentage of animals with ulcers were also calculated. Pauls Index (PI) was used as an integral indicator of the number of lesions and was calculated as follows: • PI = average number of lesions in a group x % of animals with lesions/100 [Pauls F., Wick A.M.,Mac. Key E.M. et al. An assau method for anti ulcer substances // Gastroenterology.- 1947. #8.- p.p.774 - 782]. Ulcer index UI was calculated as: UI = average lesion area size in the group x % of animals with lesions/100; gastroprotective activity GA1 was calculated as: GA1 = PI of the control group/PI of the experimental group, GA2 = UI of the control group/UI of the experimental group. The proposed drug was considered active when GA ≥ 2.

N-isovaleroyl-L-glutamyl-L-tryptophan [VGT preparation]
# Lesions (0.1 mkg/kg + stress): 15.4 ± 2.1
% Animals with Ulcers (0.1 mkg/kg + stress): 90%
GA1 (gastroprotective activity calculated for number of lesions) (0.1 mkg/kg + stress): 1.59
GA2 (gastroprotective activity calculated for lesion size) (0.1 mkg/kg + stress): 2.58
Large round Amt. (0.1 mkg/kg + stress): 6.9 ± 1.4
Large round Size (0.1 mkg/kg + stress): 4.4 ± 1.1
Lesion Size (0.1 mkg/kg + stress): 8.7 ± 2.0
Linear Amt. (0.1 mkg/kg + stress): 1.5 ± 0.7
Linear Size (0.1 mkg/kg + stress): 2.4 ± 1.0
Pauls Index (0.1 mkg/kg + stress): 13.9
Small round Amt. (0.1 mkg/kg + stress): 7.0 ± 1.4
Small round Size (0.1 mkg/kg + stress): 1.9 ± 0.4
Total Amt. (0.1 mkg/kg + stress): 15.4 ± 2.1
Total Size (0.1 mkg/kg + stress): 8.7 ± 2.0
Ulcer Index (0.1 mkg/kg + stress): 7.83
# Lesions (10 mkg/kg + stress): 16.3 ± 1.5
% Animals with Ulcers (10 mkg/kg + stress): 100%
GA1 (gastroprotective activity calculated for number of lesions) (10 mkg/kg + stress): 1.36
GA2 (gastroprotective activity calculated for lesion size) (10 mkg/kg + stress): 2.08
Lesion Size (10 mkg/kg + stress): 9.7 ± 1.2
Pauls Index (10 mkg/kg + stress): 16.3
Ulcer Index (10 mkg/kg + stress): 9.7
Large round Amt. (10.0 mkg/kg + stress): 5.7 ± 1.1
Large round Size (10.0 mkg/kg + stress): 3.4 ± 0.7
Linear Amt. (10.0 mkg/kg + stress): 1.4 ± 0.3
Linear Size (10.0 mkg/kg + stress): 3.9 ± 1.4
Small round Amt. (10.0 mkg/kg + stress): 9.2 ± 1.5
Small round Size (10.0 mkg/kg + stress): 2.5 ± 0.4
Total Amt. (10.0 mkg/kg + stress): 16.3 ± 1.5
Total Size (10.0 mkg/kg + stress): 9.7 ± 1.2
size of lesions smaller than in the control group animals (stress, both doses): 2.1 - 2.6 times
reduced the size of large lesions (stress, depending on the dose (0.1 mkg/kg by Table 1)): 2.7 times
reduced the size of large lesions (stress, depending on the dose (10 mkg/kg by Table 1)): 3.4 times
